These results are taken from publication PMC7567103 (Nature Communications, 2020).

Common to all, as to format: cell-based
Test [1] addresses T1, GHRHR wild-type (HA-Flag-GHRHR) (Homo sapiens, UniProt Q02643).
T1 construct: GHRHR(23-423) (WT); HA signal peptide (replaces native signal M1-G22) (N); expressed in transfected cells; host or cells: HEK 293T, pcDNA3.1, transient
The test can be described thus: GHRH-stimulated cAMP accumulation (LANCE), HEK 293T. To be noted: LANCE Ultra cAMP TR-FRET, 30 min RT, mean ± SEM, n ≥ 3. The text has this: (§1) Fig. 2 Molecular recognition of GHRH by GHRHR and comparison of that with LA-PTH–PTH1R and GLP-1–GLP-1R. a Detailed interaction between GHRH and the TMD pocket of GHRHR with hydrogen bonds shown as dotted lines. b, c Pairwise comparison of GHRH bound to GHRHR with GLP-1 and LA-PTH in complex with their corresponding receptors, showing the relative positions of peptide ligands. Lime green, GHRHR; blue, GHRH; red, PTH1R and LA-PTH; purple, GLP-1R and GLP-1. d–f The effects of mutation in the ligand-binding pocket on cAMP accumulation. cAMP levels were measured in wild-type (WT) receptor and alanine mutants in ECL1, 2, and 3 (d), TM1, 2, and 3 (e), and TM5, 6, and 7 (f). cAMP signals were normalized to the maximum response of WT and concentration–response curves were analyzed using a three-parameter logistic equation. Data shown are means ± S.E.M. of at least three independent experiments (n = 3–5), conducted in triplicate. Source data are provided as a Source data file.
GHRH-stimulated cAMP accumulation was measured by a LANCE Ultra cAMP kit (PerkinElmer). […] After 1 h RT incubation, TR-FRET signals (excitation: 320 nm, emission: 615 and 665 nm) were measured by an EnVision (PerkinElmer). […]
245 to determine pEC50 and Emax values. Emax values for mutants are expressed as a
246 percentage of the wild-type (WT). Cell surface expression was assessed by FACS to […]

For the next test, the target named is T2, GHRHR E122A (Homo sapiens, UniProt Q02643, E122A).
T2 construct: GHRHR(23-423)-; HA signal peptide (replaces native signal M1-G22) (N); expressed in transfected cells; host or cells: HEK 293T, pcDNA3.1, transient
T2 sequence (Q02643 23-423 E122A): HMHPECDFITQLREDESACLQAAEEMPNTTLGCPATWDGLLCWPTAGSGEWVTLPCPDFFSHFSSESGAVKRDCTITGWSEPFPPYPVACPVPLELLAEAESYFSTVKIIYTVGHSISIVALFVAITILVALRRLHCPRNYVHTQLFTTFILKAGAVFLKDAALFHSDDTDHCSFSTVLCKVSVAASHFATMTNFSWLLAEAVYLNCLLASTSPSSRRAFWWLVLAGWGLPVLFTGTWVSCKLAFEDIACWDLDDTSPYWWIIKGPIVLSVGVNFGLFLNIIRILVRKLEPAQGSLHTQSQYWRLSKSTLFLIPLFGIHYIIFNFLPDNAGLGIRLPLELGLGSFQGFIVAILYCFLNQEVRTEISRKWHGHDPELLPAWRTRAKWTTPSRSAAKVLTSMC
The test can be described thus: cAMP accumulation, E122A. To be noted: mean ± SEM, n ≥ 3.
Source text: as §1
(§2) GHRH-stimulated cAMP accumulation was measured by a LANCE Ultra cAMP kit (PerkinElmer). […] After 1 h RT incubation, TR-FRET signals (excitation: 320 nm, emission: 615 and 665 nm) were measured by an EnVision (PerkinElmer).

For a further test, the target named is T3, GHRHR E123A (Homo sapiens, UniProt Q02643, E123A).
T3 construct: GHRHR(23-423)-; HA signal peptide (replaces native signal M1-G22) (N); expressed in transfected cells; host or cells: HEK 293T, pcDNA3.1, transient
T3 sequence (Q02643 23-423 E123A): as the sequence (Q02643 23-423 E122A) above, with A100E, E101A counted along it
The test can be described thus: cAMP accumulation, E123A. To be noted: mean ± SEM, n ≥ 3.
Source text: as §1, §2

A further test deals with T4, GHRHR V179A (Homo sapiens, UniProt Q02643, V179A).
T4 construct: GHRHR(23-423)-; HA signal peptide (replaces native signal M1-G22) (N); expressed in transfected cells; host or cells: HEK 293T, pcDNA3.1, transient
T4 sequence (Q02643 23-423 V179A): as the sequence (Q02643 23-423 E122A) above, with A100E, V157A counted along it
The test can be described thus: cAMP accumulation, V179A. To be noted: mean ± SEM, n ≥ 3.
Source text: as §1, §2

The target of the next test is T5, GHRHR F187A (Homo sapiens, UniProt Q02643, F187A).
T5 construct: GHRHR(23-423)-; HA signal peptide (replaces native signal M1-G22) (N); expressed in transfected cells; host or cells: HEK 293T, pcDNA3.1, transient
T5 sequence (Q02643 23-423 F187A): as the sequence (Q02643 23-423 E122A) above, with A100E, F165A counted along it
Description: cAMP accumulation, F187A. Particulars: mean ± SEM, n ≥ 3.
Source text: as §1, §2

For another test, the target named is T6, GHRHR T192A (Homo sapiens, UniProt Q02643, T192A).
T6 construct: GHRHR(23-423)-; HA signal peptide (replaces native signal M1-G22) (N); expressed in transfected cells; host or cells: HEK 293T, pcDNA3.1, transient
T6 sequence (Q02643 23-423 T192A): as the sequence (Q02643 23-423 E122A) above, with A100E, T170A counted along it
Description: cAMP accumulation, T192A. To be noted: mean ± SEM, n ≥ 3.
Source text: as §1, §2

Test [2] deals with T7, GHRHR(23-405)-15AA-LgBiT-2MBP (Homo sapiens, UniProt Q02643).
T7 construct: 24 h after transfection with GHRHR(23-423), GHRHR(23-405), GHRHR(23-405)-LgBiT-2MBP, or HA-Flag-GHRHR (WT and mutants); HA signal peptide (replaces native signal M1-G22) (N); expressed in transfected cells; host or cells: HEK 293 T
T7 sequence (Q02643 23-405): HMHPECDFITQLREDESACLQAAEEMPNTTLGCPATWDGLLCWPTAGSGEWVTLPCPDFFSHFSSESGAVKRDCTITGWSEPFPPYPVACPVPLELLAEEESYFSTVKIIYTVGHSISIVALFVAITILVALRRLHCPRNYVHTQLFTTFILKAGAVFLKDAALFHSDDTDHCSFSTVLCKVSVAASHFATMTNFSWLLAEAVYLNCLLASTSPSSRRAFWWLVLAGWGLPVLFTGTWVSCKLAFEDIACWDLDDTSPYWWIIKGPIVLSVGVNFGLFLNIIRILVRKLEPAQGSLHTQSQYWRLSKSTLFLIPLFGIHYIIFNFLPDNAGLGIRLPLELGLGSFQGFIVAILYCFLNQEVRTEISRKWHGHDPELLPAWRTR
The test can be described thus: cAMP accumulation, construct GHRHR(23-405)-15AA-LgBiT-2MBP (Supplementary Fig. 2b). To be noted: HEK 293T; mean ± SEM, n = 8-10. The protocol:
GHRH-stimulated cAMP accumulation was measured by a LANCE Ultra cAMP kit (PerkinElmer). Briefly, 24 h after transfection with GHRHR(23-423), GHRHR(23-405), GHRHR(23-405)-LgBiT-2MBP, or HA-Flag-GHRHR (WT and mutants), HEK 293 T cells (3000/well in 384-well white plates, PerkinElmer) were digested by 0.2% (w/v) EDTA and 5 μL stimulation buffer (HBSS supplemented with 5 mM HEPES, 0.5 mM IBMX, and 0.1% (w/v) BSA, pH 7.4). Different concentrations (5 μL) of GHRH were then added and the stimulation lasted for 30 min at RT. The reaction was stopped by adding 5 μL Eu-cAMP tracer and 5 μL ULight-anti-cAMP. After 1 h RT incubation, TR-FRET signals (excitation: 320 nm, emission: 615 and 665 nm) were measured by an EnVision (PerkinElmer).
223 Supplementary Ta b l e 1. Effects of GHRH-mediated cAMP accumulation.
Receptor cAMP Cell surface expression Binding
pEC50 Emax (% WT) (% WT) pIC50 […]
225 to determine pEC50 and Emax values. pEC50 is the negative logarithm of the molar
226 concentration of agonist that induced half the maximal response. Cell surface […]
228 Flag antibody (Sigma-Aldrich, 1:300); Donkey anti-Mouse Alexa Fluor 488-
229 conjugated secondary antibody, (ThermoFisher Scientific, 1:1000)] on the […]
231 Binding data were analyzed using a three-parameter logistic equation to […]
234 determine statistical difference. *P<0.01; ND, not determined.

T1 sequence (Q02643 23-423): as the sequence (Q02643 23-423 E122A) above, with A100E counted along it

As for `CC[C@H](C)[C@H](NC(=O)[C@H](C)NC(=O)[C@H](CC(=O)O)NC(=O)[C@H](C)NC(=O)[C@@H](N)Cc1ccc(O)cc1)C(=O)N[C@@H](Cc1ccccc1)C(=O)N[C@H](C(=O)N[C@@H](CC(N)=O)C(=O)N[C@@H](CO)C(=O)N[C@@H](Cc1ccc(O)cc1)C(=O)N[C@@H](CCCNC(=N)N)C(=O)N[C@@H](CCCCN)C(=O)N[C@H](C(=O)N[C@@H](CC(C)C)C(=O)NCC(=O)N[C@@H](CCC(N)=O)C(=O)N[C@@H](CC(C)C)C(=O)N[C@@H](CO)C(=O)N[C@@H](C)C(=O)N[C@@H](CCCNC(=N)N)C(=O)N[C@@H](CCCCN)C(=O)N[C@@H](CC(C)C)C(=O)N[C@@H](CC(C)C)C(=O)N[C@@H](CCC(N)=O)C(=O)N[C@@H](CC(=O)O)C(=O)N[C@H](C(=O)N[C@@H](CCSC)C(=O)N[C@@H](CO)C(=O)N[C@@H](CCCNC(=N)N)C(=O)N[C@@H](CCC(N)=O)C(=O)N[C@@H](CCC(N)=O)C(=O)NCC(=O)N[C@@H](CCC(=O)O)C(=O)N[C@@H](CO)C(=O)N[C@@H](CC(N)=O)C(=O)N[C@@H](CCC(N)=O)C(=O)N[C@@H](CCC(=O)O)C(=O)N[C@@H](CCCNC(=N)N)C(=O)NCC(=O)N[C@@H](C)C(=O)N[C@@H](CCCNC(=N)N)C(=O)N[C@@H](C)C(=O)N[C@@H](CCCNC(=N)N)C(=O)N[C@@H](CC(C)C)C(N)=O)[C@@H](C)CC)C(C)C)[C@@H](C)O` [GHRH, Growth hormone-releasing hormone], the EC50 is 0.182 nM in test [1] (0.5 mM IBMX); 0.11 nM at GHRHR E122A; 0.0724 nM at GHRHR E123A; 0.288 nM at GHRHR V179A; 1.15 nM on GHRHR F187A; 0.229 nM at GHRHR T192A. This molecule also showed a concentration giving a half-maximal response (EC50) in test [2] of 2.88 nM. In addition, the Emax is 100 % WT in test [1]; 98.38±3.26 % WT at GHRHR E122A; 100.33±1.34 % WT at GHRHR E123A; 101.24±3.06 % WT at GHRHR V179A; 101.68±1.52 % WT on GHRHR F187A; 103.11±1.18 % WT on GHRHR T192A. Moreover, the Emax in test [2] came out at 78.82±10.52 % WT.
